Test results taken from patent US20180353501A1 (Arvinas, Inc., priority 2017, published 2018).

Experiments:
[1] = biological target: T1, p38δ:PROTAC:VHL ternary complex (Homo sapiens, UniProt O15264+P40337); test: In vitro ternary complex pull-down with GST-VBC bait, purified p38δ; format: binding
T1 construct: encoding a region spanning amino acids 1-365 was PCR-amplified; His6 (N); made in house; host or cells: E. coli (BL21-CodonPlus(DE3)-RIPL for p38δ; BL21(DE3) for GST-VBC)
Description: FIGS. 15A, 15B, and 15C. Differential p38δ:PROTAC:VHL ternary complex affinities result in distinct cellular ubiquitination outcomes. (A) Both exemplary compound 50 and 46 pull-down p38δ in vitro, however compound 46 maintains ternary complex at lower concentrations. As in FIG. 14A, GST-tagged VBC was used as a bait to trap recombinant p38δ in the presence of vehicle (DMSO) or the indicated concentrations of compound 50 or 46. The rightmost lane represents a 1:25 dilution of initial input protein used in each pull-down. […] GST-VBC was immobilized on glutathione sepharose beads and incubated with MDA-MB-231 whole cell lysate (WCL) in the presence of vehicle (DMSO) or the indicated concentrations of compound 50 or 46. Beads were washed and “trapped” proteins (i.e. those that engage in a ternary complex) were eluted with SDS sample buffer and separated by SDS-PAGE. Samples were assessed by western blot and CUL2 and α-tubulin serve as positive and negative GST-VBC immunoprecipitation controls, respectively. (C) Only exemplary compound 46 ubiquitinates FLAG-p38δ in HeLa cells. As in FIG. 14C, HeLa cells were co-transfected with HA-Ub and FLAG-p38δ and were either treated with vehicle (DMSO) or 1 μM of compound 50 or 1 μM of compound 46 for 2 hours. FLAGimmunoprecipitated lysates were separated by SDS-PAGE and assessed via western blots detecting HA (Ub). […]

endogenous p38δ = biological target: T2, endogenous p38δ (Homo sapiens, UniProt O15264+P40337); test: Ternary complex pull-down from MDA-MB-231 whole cell lysate with GST-VBC bait; format: binding
T2 construct: GST-VBC was immobilized on glutathione sepharose beads and incubated with MDA-MB-231 whole cell lysate (WCL); endogenous in cells; host or cells: MDA-MB-231 whole cell lysate (p38δ); GST-VBC bait made in E. coli BL21(DE3)
T2 sequence (O15264 whole entry): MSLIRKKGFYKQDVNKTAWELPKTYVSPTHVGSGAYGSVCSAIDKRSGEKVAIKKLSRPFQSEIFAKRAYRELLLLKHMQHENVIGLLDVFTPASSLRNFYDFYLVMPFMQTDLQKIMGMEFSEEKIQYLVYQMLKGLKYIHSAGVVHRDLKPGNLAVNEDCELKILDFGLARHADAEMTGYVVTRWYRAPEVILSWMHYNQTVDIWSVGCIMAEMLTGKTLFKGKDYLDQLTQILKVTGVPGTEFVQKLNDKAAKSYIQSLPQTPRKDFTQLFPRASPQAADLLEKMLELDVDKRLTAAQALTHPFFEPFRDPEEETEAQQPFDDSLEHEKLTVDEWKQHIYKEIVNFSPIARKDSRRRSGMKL
T2 sequence (P40337 whole entry): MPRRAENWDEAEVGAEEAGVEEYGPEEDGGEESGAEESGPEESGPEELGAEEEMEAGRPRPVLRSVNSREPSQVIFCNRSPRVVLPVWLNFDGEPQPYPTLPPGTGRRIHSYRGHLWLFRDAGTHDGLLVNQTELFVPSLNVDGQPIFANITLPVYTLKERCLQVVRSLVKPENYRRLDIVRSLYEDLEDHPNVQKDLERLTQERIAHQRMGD
T2 sequence (Q15370 whole entry partner): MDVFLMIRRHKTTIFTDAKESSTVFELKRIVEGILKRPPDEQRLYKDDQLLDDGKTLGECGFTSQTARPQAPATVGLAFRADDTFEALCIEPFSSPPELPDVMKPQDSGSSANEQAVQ
T2 sequence (Q15369 whole entry partner): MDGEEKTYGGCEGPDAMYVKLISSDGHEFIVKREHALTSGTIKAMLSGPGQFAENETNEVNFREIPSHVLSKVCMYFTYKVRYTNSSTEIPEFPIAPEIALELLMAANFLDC
Description: FIGS. 15A, 15B, and 15C. Differential p38δ:PROTAC:VHL ternary complex affinities result in distinct cellular ubiquitination outcomes. (A) Both exemplary compound 50 and 46 pull-down p38δ in vitro, however compound 46 maintains ternary complex at lower concentrations. As in FIG. 14A, GST-tagged VBC was used as a bait to trap recombinant p38δ in the presence of vehicle (DMSO) or the indicated concentrations of compound 50 or 46. The rightmost lane represents a 1:25 dilution of initial input protein used in each pull-down. […] GST-VBC was immobilized on glutathione sepharose beads and incubated with MDA-MB-231 whole cell lysate (WCL) in the presence of vehicle (DMSO) or the indicated concentrations of compound 50 or 46. Beads were washed and “trapped” proteins (i.e. those that engage in a ternary complex) were eluted with SDS sample buffer and separated by SDS-PAGE. Samples were assessed by western blot and CUL2 and α-tubulin serve as positive and negative GST-VBC immunoprecipitation controls, respectively. […] FLAGimmunoprecipitated lysates were separated by SDS-PAGE and assessed via western blots detecting HA (Ub). […]
To further assess these findings, a more biologically-relevant context for measuring ternary complex formation was used. […] Thus, whether PROTAC-induced PPIs could be monitored in a complex cellular environment using CETSA was examined. […]

T1 sequence (O15264 whole entry, the tested form may be a part): as the sequence (O15264 whole entry) above
T1 sequence (P40337 whole entry, the tested form may be a part): as the sequence (P40337 whole entry) above
T1 sequence (Q15370 whole entry partner, the tested form may be a part): as the sequence (Q15370 whole entry partner) above
T1 sequence (Q15369 whole entry partner, the tested form may be a part): as the sequence (Q15369 whole entry partner) above

| SMILES | pull-down of purified p38δ on GST-VBC-coated beads [1] | enrichment of endogenous p38δ from whole cell lysate on GST-VBC bait (endogenous p38δ) |
| --- | --- | --- |
| COc1cc2c(Oc3ccc(NC(=O)C4(C(=O)Nc5ccc(F)cc5)CC4)cc3F)ccnc2cc1OCCOCCOCCOc1cc(-c2scnc2C)ccc1CNC(=O)[C@@H]1C[C@@H](O)CN1C(=O)[C@H](C(C)C)N1Cc2ccccc2C1=O [compound 46] | slightly greater ternary complex pull-down efficiency | strongly enrich for endogenous p38δ in a dose-dependent manner |
| COc1cc2c(Oc3ccc(NC(=O)C4(C(=O)Nc5ccc(F)cc5)CC4)cc3F)ccnc2cc1OCCCCOCCCCOCC(=O)N[C@H](C(=O)N1C[C@H](O)C[C@H]1C(=O)NCc1ccc(-c2scnc2C)cc1)C(C)(C)C [compound 50, N-(3-fluoro-4-((7-(4-(4-(2-(((S)-1-((2S,4R)-4-hydroxy-2-((4-(4-methylthiazol-5-yl)benzyl)carbamoyl)pyrrolidin-1-yl)-3,3-dimethyl-1-oxobutan-2-yl)amino)-2-oxoethoxy)butoxy)buto-xy)-6-methoxyquinolin-4-yl)oxy)phenyl)-N-(4-fluorophenyl)cyclopropane-1,1-dicarboxa-mide] | able to pull-down purified p38δ on GST-VBC-coated beads in a dose-dependent manner | greatly reduced |
